Data set [1] relates to Echinochloa crusgalli seedlings. Kind of data set: Herbicidal activity test (PPA method), growth inhibition of radicles of weed seedlings. In kind it is in vivo. The note with it: Echinochloa crus-galli, 48 h, radicle length after 2 days in agar, read-out: Growth inhibition rates (%) to radicles of Echinochloa crusgalli seedlings; for inhibition at 2.5 µg/mL: 2.5 μg/mL; for inhibition at 5 µg/mL: 5 μg/mL; for inhibition at 10 µg/mL: 10 μg/mL. An excerpt: The method of grinded plant tissue powder mixed with agar (PPA method), established by Luo Xiaoyong, et al. (Journal of Qingdao Agricultural University, 2007, 24: 267-270) is used to quickly determine the herbicidal activity of compounds. It has the advantages of high sensitivity, easy operation, good repeatability, and large-throughput screening. It is also easy to observe the growth status of indicator plants. Luo Xiaoyong used this method to quickly determine the herbicidal activity of the leaves of 40 garden plants. Zhang Lijuan (Plant Protection, 2016, 42: 63-66) and Su Fansheng (Applied Chemistry, 2014, 31: 290-295) quickly determined the herbicidal activity of corn stalks and imidazole compounds by the PPA method with Echinochloa crusgalli as the test weed. Zhang Yun (Journal of Microbiology, 2015, 55: 292-298) and Li Shuai (Journal of Agricultural and Food Chemistry, 2014, 62: 8997-9001) studied the inhibitory effect of microbial secondary metabolites on the root growth of Amaranthus retroflexus by using Amaranthus retroflexus as the test weed.
Weed seeds were first sterilized with 0.2% sodium hypochlorite for 15 min, then washed repeatedly with sterile distilled water, soaked for 4-6 h, and germinated for 12 h in a medical tray with sterile wet filter paper in a dark place.
The compound to be tested was dissolved in dimethyl sulfoxide (DMSO) to obtain a 4 mg/mL solution, and the 4 mg/mL solution was then diluted with 50% DMSO aqueous solution to different concentrations for later use.
1 mL of the sample solution and 99 mL of sterile agar aqueous solution were mixed well, and poured into three 25 mL small beakers to be condensed. Needle-nose tweezers were used to insert 5 small holes on the surface of the condensed agar, the germinated test weed seedlings with 4-5 radicles were clamped separately and inserted gently and vertically into the small holes. Each beaker had five pieces of such agar and the operation was repeated for three times. Then, all beakers were sealed with tin foil and placed in a sterilized small carton, and the sterilized small carton was then placed in an artificial climate box for shading culture for 2 days. The artificial climate box set an automatic cycle of 14 h lighting (25° C.) and 10 h shading (20° C.), and the relative humidity in the box was set at 60%. After 2 days, the lengths of the radicle and hypocotyl were investigated to calculate the weed growth inhibition rate.
The calculation equations were as follows (Chinese Agricultural Science Bulletin, 2013, 29: 177-182): Growth=length of radicle (hypocotyl) after treatment−length of radicle (hypocotyl) before treatment; Inhibition rate (%)=[(average growth of control−average growth of treatment)/average growth of control]×100%.

The test system of the next data set is Brine shrimp. Kind of data set: Lethal activity of Brine shrimp. Type of data set: in vivo. The settings on record: concentration of 500 μg/mL; 24 h incubation at room temperature. The method, then:
Brine shrimp is an aquatic animal that is highly sensitive to toxic substances. It can be used as a model organism to preliminary evaluate the toxic effects of compounds on the environment. Masi, M. et al. used Brine shrimp to preliminary evaluate the toxicity of the herbicidal active compounds Colletochlorins E and F (Journal of Agricultural and Food Chemistry, 2017, 65: 1124-1130).
100 mg of Brine shrimp eggs were placed in a 500 mL beaker, 400 mL of artificial seawater was added, the Brine shrimp eggs were slowly inflated with an air pump and hatched at room temperature for 24 h, the egg shells and unhatched eggs were removed, and the Brine shrimps were further incubated for 24 h.
The compound to be tested was dissolved in DMSO to obtain a 20 mg/mL mother liquor, and the mother liquor was then sequentially diluted twice to obtain 10, 5 and 2.5 mg/mL solutions for later use.
195 μL of artificial seawater containing 10-15 Brine shrimps were added into each well of a 96-well cell culture plate to make a test culture plate. […] After incubation at room temperature for 24 h, the number of Brine shrimp deaths was counted under a binocular dissecting microscope. […]

On to `CCOCN(C(=O)CCl)c1c(C)cccc1CC` [Acetochlor, reference compound], for which, in data set [1], the inhibition at 2.5 µg/mL was 54.8 ± 1.3%, the inhibition at 5 µg/mL was 65.6 ± 1.8% and the inhibition at 10 µg/mL worked out at 76.1 ± 1.4%.
In the case of `CC1=C[C@H](O)[C@H]2C[C@@H](C)CC[C@@H]2[C@@]1(C)C(=O)CCO` [Compound 1], the “lethal activity of Brine shrimp” value in the data set with Brine shrimp was “do not exhibit the lethal activity”. Further, in data set [1], the inhibition at 2.5 µg/mL came out at 52.7 ± 1%, the inhibition at 5 µg/mL turned out to be 64.7 ± 0.9% and the inhibition at 10 µg/mL is 81.5%.
On to `C[C@H]1CC[C@H]2[C@@H](C=C[C@@](C)(O)[C@]2(C)C(=O)CCOC(=O)Cc2ccc(O)c(O)c2)C1` [Compound 2], for which the “lethal activity of Brine shrimp” value with Brine shrimp is “do not exhibit the lethal activity”. Besides, in data set [1], the inhibition at 2.5 µg/mL stood at 41 ± 0.8%, the inhibition at 5 µg/mL was 55.4 ± 1.2% and the inhibition at 10 µg/mL was determined as 79.6%.

Broadly, the inhibition is the relative decrease from the control value, in per cent.
